Assay type in all cases: cell-based
The test system of test [1] is HT29 cells. Nature of the test: Necroptosis assay in HT29 cells (TNF-α, Smac mimetic, z-VAD; cell viability). As to conditions: Homo sapiens, HT-29; TNF-α (40 ng/mL), Smacmimetic (100 nM), z-VAD (20 μM), 48 hours. The protocol: Human colon cancer HT29 cells were used in a necroptosis assay. For this assay, HT29 cells were added to 96-well plates and then were pre-treated with 10 μM of the test compound for one hour. Then the cells were treated with TNF-α (40 ng/mL), Smacmimetic (100 nM) and z-VAD (20 μM) for 48 hours, and the viability of cells was quantified. DMSO pretreatment group was used as negative controls, Nec-1 pretreatment group was used as positive controls.
In Table 2, (1) “ND” indicates “not detected;” (2) Explanation for inhibition %: Taking Compound B14 as an example, its inhibition % was 30% (50 nM). It means that the when Compound B14 at a concentration of 50 nM was used in the HT29 Cell Assay, the necrosis of cells were inhibited at 30%.

The next test deals with L929 cells. Nature of the test: Necroptosis assay in L929 cells (TNF-α, z-VAD; cell viability by ATP levels). As to conditions: Mus musculus, TNF-α (40 ng/mL), z-VAD (20 μM), 48 hours. The protocol:
[…] Then the cells were treated with TNF-α (40 ng/mL) and z-VAD (20 μM) for 48 hours, and the viability of cells was quantified by detecting adenosine triphosphate (ATP) levels. DMSO pretreatment group was used as negative controls, Nec-1 pretreatment group was used as positive controls.

For test [2], the system named is HT29 cells. Nature of the test: Necroptosis assay in HT29 cells (TNF-α, Smac mimetic, z-VAD; cell viability). The note with it: Homo sapiens, HT-29; inhibition of necrosis in HT29 cells, compound at 50 nM.

Structures are written as SMILES. Where a name gives a salt, the structure may show the parent alone.

For orientation: IC50 means the midpoint of a concentration-inhibition curve. In the case of `Nc1nc2ccc(-c3cnc4c(c3)N(C(=O)OC3CCCCC3)CCO4)cc2s1` [Compound B1], the half-maximal inhibitory concentration (IC50) in the test with HT29 cells [1] is 11 nM; in the test with L929 cells it was 3.6 nM. For the molecule `O=C(Nc1nc2ccc(-c3cnc4c(c3)N(C(=O)OC3CCCCC3)CCO4)cc2s1)C1CC1` [Compound B3], the IC50 in the test with HT29 cells [1] worked out at 0.5 nM; with L929 cells, 0.59 nM. For `CC(=O)Nc1nc2ccc(-c3cnc4c(c3)N(C(=O)OC3CCCCC3)CCO4)cn2n1` [Compound B7], the IC50 in the test on HT29 cells [1] is 46 nM; in the test with L929 cells it was 20 nM. The matching figures for `CC(=O)Nc1cn2cc(-c3cnc4c(c3)N(C(=O)OC3CCCCC3)CCO4)ccc2n1` [Compound B8]: 1 nM and 1.5 nM. Take `O=C(Nc1cn2cc(-c3cnc4c(c3)N(C(=O)OC3CCCCC3)CCO4)ccc2n1)C1CC1` [Compound B9]: the half-inhibitory concentration (IC50) in the test on HT29 cells [1] is 0.5 nM; in the test on L929 cells it was 0.2 nM. For the molecule `Nc1cn2nc(-c3cnc4c(c3)N(C(=O)OC3CCCCC3)CCO4)ccc2n1` [Compound B11], the 50% inhibitory concentration (IC50) worked out at 500 nM with HT29 cells [1] and 8.9 nM in the test on L929 cells. For the molecule `O=C(Nc1cn2nc(-c3cnc4c(c3)N(C(=O)OC3CCCCC3)CCO4)ccc2n1)C1CC1` [Compound B13], the IC50 came to 1.3 nM in the test on HT29 cells [1] and 0.7 nM in the test with L929 cells. What is called inhibition is how much of the control response was suppressed. Read a low inhibition as a response near the control. Consider `Nc1nc2ccc(-c3cnc4c(c3)N(C(=O)OC3CCOCC3)CCO4)cc2s1` [Compound B14, tetrahydro-2H-pyran-4-yl7-(2-aminobenzo[d]thiazol-6-yl)-2,3-dihydro-1H-pyrido[2,3-b][1,4]oxazine-1-carboxylate hydrochloride], for which the inhibition at 0.05 µM in the test with HT29 cells [2] was 30%. The molecule also gave a half-inhibitory concentration (IC50) in the test with L929 cells of 12.6 nM. As for `CC(=O)Nc1nc2ccc(-c3cnc4c(c3)N(C(=O)OC3CCOCC3)CCO4)cc2s1` [Compound B15], the IC50 came to 20 nM with HT29 cells [1] and 8.8 nM in the test with L929 cells.

As for `O=C(Nc1nc2ccc(-c3cnc4c(c3)N(C(=O)OC3CCOCC3)CCO4)cc2s1)C1CC1` [Compound B16], the IC50 stood at 4 nM in the test on HT29 cells [1] and 1.5 nM in the test with L929 cells. In turn, `CC(=O)Nc1cn2cc(-c3cnc4c(c3)N(C(=O)OC3CCOCC3)CCO4)ccc2n1` [Compound B18] came in with an inhibition at 0.05 µM in the test on HT29 cells [2] of 10%. For the molecule `O=C(Nc1cn2cc(-c3cnc4c(c3)N(C(=O)OC3CCOCC3)CCO4)ccc2n1)C1CC1` [Compound B19], the IC50 is 20 nM with HT29 cells [1] and 10 nM with L929 cells. The molecule `CC(=O)Nc1cn2nc(-c3cnc4c(c3)N(C(=O)OC3CCOCC3)CCO4)ccc2n1` [Compound B20] showed an inhibition at 0.05 µM in the test with HT29 cells [2] of 20%. For `O=C(Nc1cn2nc(-c3cnc4c(c3)N(C(=O)OC3CCOCC3)CCO4)ccc2n1)C1CC1` [Compound B21], the values for the 50% inhibitory concentration (IC50) in the test on HT29 cells [1] and in the test with L929 cells were 50 nM and 31 nM, respectively. On to `CC(C)(C)OC(=O)Nc1cn2nc(-c3cnc4c(c3)N(C(=O)OC3CCOCC3)CCO4)ccc2n1` [Compound B22], for which the concentration for half-maximal inhibition (IC50) with HT29 cells [1] came out at 114 nM; with L929 cells, 80 nM. The inhibition at 0.05 µM in the test with HT29 cells [2] came to 25%. Consider `Nc1cn2nc(-c3cnc4c(c3)N(C(=O)OC3CCOCC3)CCO4)ccc2n1` [Compound B23], for which the IC50 is 147 nM with HT29 cells [1] and 11.5 nM in the test with L929 cells. The molecule also returned an inhibition at 0.05 µM in the test on HT29 cells [2] of 10%. Regarding `CC(=O)Nc1nc2ccc(-c3cnc4c(c3)N(C(=O)OC(C)C3CC3)CCO4)cc2s1` (centres unmarked) [Compound B24], the IC50 amounted to 18 nM in the test with HT29 cells [1] and 5 nM in the test on L929 cells. As to `CC(=O)Nc1nc2ccc(-c3cnc4c(c3)N(C(=O)OC3CCCOC3)CCO4)cc2s1` (centres unmarked) [Compound B25], the IC50 amounted to 17 nM in the test with HT29 cells [1] and 10 nM in the test with L929 cells. With `O=C(Nc1nc2ccc(-c3cnc4c(c3)N(C(=O)OC3CCOCC3)CCO4)nc2s1)C1CC1` [Compound B35], the half-maximal inhibitory concentration (IC50) with HT29 cells [1] turned out to be 36 nM; with L929 cells, 1 nM. With `CC(=O)Nc1nc2ccc(-c3cnc4c(c3)N(C(=O)OC3CCCCC3)C[C@@H](C)O4)cc2s1` [Compound B37, Cyclohexyl-(R)-7-(2-acetamidobenzo[d]thiazol-6-yl)-3-methyl-2,3-dihydro-1H-pyrido[2,3-b][1,4]oxazine-1-carboxylate], the half-inhibitory concentration (IC50) in the test with HT29 cells [1] amounted to 32 nM; in the test on L929 cells it was 30 nM. The like results for `CC(=O)Nc1nc2ccc(-c3cnc4c(c3)N(C(=O)OC3CCCCC3)C[C@H](C)O4)cc2s1` [Compound B38] were, in that order, 3500 nM and 15 nM. With `CC(=O)Nc1cn2nc(-c3cnc4c(c3)N(C(=O)OC3CCOCC3)CC4)ccc2n1` [Compound B57], the values for the concentration for half-maximal inhibition (IC50) with HT29 cells [1] and in the test on L929 cells were 600 nM and 90 nM, respectively. On to `CNC(=O)Nc1nc2ccc(-c3cnc4c(c3)N(C(=O)OC3CCOCC3)CC4)cc2s1` [Compound B60, Tetrahydro-2H-pyran-4-yl6-(2-(3-methylureido)benzo[d]thiazol-6-yl)-2,3-dihydro-1H-pyrrolo[3,2-b]pyridine-1-carboxylate], for which the IC50 in the test on HT29 cells [1] was determined as 1.3 nM; in the test on L929 cells, 2.8 nM.

The molecule `O=C(Nc1nc2ccc(-c3cnc4c(c3)N(C(=O)CC3CCOCC3)CC4)cc2s1)C1CC1` [Compound B62, N-(6-(1-(2-(tetrahydro-2H-pyran-4-yl)acetyl)-2,3-dihydro-1H-pyrrolo[3,2-b]pyridin-6-yl)benzo[d]thiazol-2-yl)cyclopropanecarboxamide] returned an IC50 with HT29 cells [1] of 1.9 nM. As to `O=C(Nc1nc2ccc(-c3cnc4c(c3)N(C(=O)CC3CCOCC3)CC4)nc2s1)C1CC1` [Compound B63], the IC50 was 25 nM in the test on HT29 cells [1] and 8.5 nM in the test on L929 cells. In turn, `O=C(Nc1cn2cc(-c3cnc4c(c3)N(C(=O)CC3CCOCC3)CC4)ccc2n1)C1CC1` [Compound B64] came in with an IC50 in the test with HT29 cells [1] of 53 nM. Consider `CC(C)OC(=O)N1CCc2ncc(-c3ccc4nc(NC(=O)C5CC5)sc4c3)cc21` [Compound B65], for which the IC50 with HT29 cells [1] is 3.2 nM; in the test with L929 cells, 4.5 nM. The matching figures for `O=C(Nc1nc2ccc(-c3cnc4c(c3)N(C(=O)OCC3CC3)CC4)cc2s1)C1CC1` [Compound B66]: 0.39 nM and 0.73 nM.

In the test with HT29 cells [1], `O=C(Nc1nc2ccc(-c3cnc4c(c3)N(C(=O)OC3CCNCC3)CC4)cc2s1)C1CC1` [Compound B67, Piperidin-4-yl-6-(2-(cyclopropanecarboxamido)benzo[d]thiazol-6-yl)-2,3-dihydro-1H-pyrrolo[3,2-b]pyridine-1-carboxylate] came in with an IC50 of 300 nM. That is a sub-micromolar value. As to `CN1CCC(OC(=O)N2CCc3ncc(-c4ccc5nc(NC(=O)C6CC6)sc5c4)cc32)CC1` [Compound B68, 1-methylpiperidin-4-yl-6-(2-(cyclopropanecarboxamido)benzo[d]thiazol-6-yl)-2,3-dihydro-1H-pyrrolo[3,2-b]pyridine-1-carboxylate], the IC50 in the test with HT29 cells [1] was determined as 30 nM; with L929 cells, 28.3 nM. Consider `O=C(Nc1nc2ccc(-c3cnc4c(c3)N(C(=O)OC3CCS(=O)(=O)CC3)CC4)cc2s1)C1CC1` [Compound B69, 1,1-dioxidotetrahydro-2H-thiopyran-4-yl6-(2-(cyclopropanecarboxamido)benzo[d]thiazol-6-yl)-2,3-dihydro-1H-pyrrolo[3,2-b]pyridine-1-carboxylate], for which the IC50 was determined as 4.8 nM in the test on HT29 cells [1] and 15 nM in the test on L929 cells. For `O=C(Nc1nc2ccc(-c3cnc4c(c3)N(C(=O)OC3CCC(F)(F)CC3)CC4)cc2s1)C1CC1` [Compound B70], the half-inhibitory concentration (IC50) in the test on HT29 cells [1] worked out at 1.2 nM; in the test with L929 cells, 1.3 nM.

With `CNC(=O)Nc1nc2ccc(-c3cnc4c(c3)N(C(=O)OC3CCOCC3)CC4)nc2s1` [Compound B71], in the test with HT29 cells [1], the midpoint of inhibition, the IC50, lay at 33.4 nM. That is a double-digit nanomolar value. In the test on HT29 cells [1], `CNC(=O)Nc1cn2cc(-c3cnc4c(c3)N(C(=O)OC3CCOCC3)CC4)ccc2n1` [Compound B72] gave an IC50 of 48.1 nM. `CNC(=O)Nc1nc2ccc(-c3cnc4c(c3)N(C(=O)OCC3CC3)CC4)cc2s1` [Compound B73] came in with an IC50 in the test with HT29 cells [1] of 1.8 nM. Still for that read-out and setting: then `CNC(=O)Nc1nc2ccc(-c3cnc4c(c3)N(C(=O)OCC3CC3)CC4)nc2s1` [Compound B74], with 23 nM; and `CNC(=O)Nc1cn2cc(-c3cnc4c(c3)N(C(=O)OCC3CC3)CC4)ccc2n1` [Compound B75], with 19 nM. In the case of `O=C(Nc1nc2ccc(-c3cnc4c(c3)N(C(=O)OCC3CC3)CC4)nc2s1)C1CC1` [Compound B76], the half-inhibitory concentration (IC50) with HT29 cells [1] worked out at 2.4 nM. `O=C(Nc1cn2cc(-c3cnc4c(c3)N(C(=O)OCC3CC3)CC4)ccc2n1)C1CC1` [Compound B77] had a half-inhibitory concentration (IC50) with HT29 cells [1] of 1.7 nM. Turning to `O=C(Nc1nc2ccc(-c3cnc4c(c3)N(C(=O)OC3COC3)CC4)cc2s1)C1CC1` [Compound B78, Oxetan-3-yl-6-(2-(cyclopropanecarboxamido)benzo[d]thiazol-6-yl)-2,3-dihydro-1H-pyrrolo[3,2-b]pyridine-1-carboxylate], inhibition in the test on HT29 cells [1] was half-maximal at 6.7 nM (IC50). As for `CNCC(C)OC(=O)N1CCc2ncc(-c3ccc4nc(NC(=O)C5CC5)sc4c3)cc21` (centres unmarked) [Compound B79], in the test with HT29 cells [1], the IC50 came to 16 nM. Compared with the last molecule, the IC50 is about 2.4-fold higher. Still for that read-out and setting: with `CC(=O)Nc1ccc2cc(-c3cnc4c(c3)N(C(=O)OC3CCCCC3)CCO4)ccc2n1` [Compound B80, Cyclohexyl7-(2-acetamidoquinolin-6-yl)-2,3-dihydro-1H-pyrido[2,3-b][1,4]oxazine-1-carboxylate] the figure was 1000 nM.
